# Experimental data published in US6737383B1, “Herbicidal oxadiazolidines” (priority 1999, dated 2004).
# Legend:
# giant foxtail = test: Test B pre/postemergence giant foxtail; type: in vivo, Setaria faberii
# In short: (§1)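 Test chemicals in a non-phytotoxic solvent mixture with surfactant were sprayed preemergence onto planted seeds and postemergence onto plants 2 to 18 cm tall (1- to 4-leaf stage). After twelve to sixteen days in a greenhouse, injury was visually rated against untreated controls from 0 (no effect) to 10 (complete control).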
# cocklebur = test: Test B pre/postemergence cocklebur; type: in vivo, Xanthium strumarium
# In short: as §1
# bedstraw = test: Test B pre/postemergence bedstraw; type: in vivo, Galium aparine
# In short: as §1
# surinam grass = test: Test B pre/postemergence surinam grass; type: in vivo, Brachiaria decumbens
# In short: as §1
# sugar beet = test: Test B pre/postemergence sugar beet; type: in vivo, Beta vulgaris
# In short: as §1
# crabgrass = test: Test B pre/postemergence crabgrass; type: in vivo, Digitaria sanguinalis
# In short: as §1
# morningglory = test: Test B pre/postemergence morningglory; type: in vivo, Ipomoea hederacea
# In short: as §1
# rape = test: Test B pre/postemergence rape; type: in vivo, Brassica napus
# In short: as §1
# velvetleaf = test: Test B pre/postemergence velvetleaf; type: in vivo, Abutilon theophrasti
# In short: as §1
# pigweed = test: Test B pre/postemergence pigweed; type: in vivo, Amaranthus retroflexus
# In short: as §1
# wild oat = test: Test B pre/postemergence wild oat; type: in vivo, Avena fatua
# In short: as §1
# corn = test: Test B pre/postemergence corn; type: in vivo, Zea mays
# In short: as §1
# blackgrass = test: Test B pre/postemergence blackgrass; type: in vivo, Alopecurus myosuroides
# In short: as §1
# wheat = test: Test B pre/postemergence wheat; type: in vivo, Triticum aestivum
# In short: as §1
# soybean = test: Test B pre/postemergence soybean; type: in vivo, Glycine max
# In short: as §1
# purple nutsedge = test: Test B pre/postemergence purple nutsedge; type: in vivo, Cyperus rotundus
# In short: as §1
# [1] = Preemergence, Rate 62 g/ha, scale of 0 to 10 where 0 is no effect and 10 is complete control
# [2] = Preemergence, Rate 125 g/ha, scale of 0 to 10 where 0 is no effect and 10 is complete control
# [3] = Preemergence, Rate 250 g/ha, scale 0 to 10 (0 no effect, 10 complete control)
# [4] = Preemergence, Rate 500 g/ha, scale of 0 to 10 where 0 is no effect and 10 is complete control
# [5] = Postemergence, Rate 62 g/ha, scale 0 to 10, 0 is no effect, 10 is complete control
# [6] = Postemergence, Rate 125 g/ha, scale of 0 to 10 where 0 is no effect and 10 is complete control
# [7] = Preemergence, Rate 250 g/ha, scale 0 (no effect) to 10 (complete control)
# [8] = Rate 250 g/ha, Postemergence, scale 0 to 10, 0 is no effect, 10 is complete control
# [9] = Rate 500 g/ha, Postemergence, scale 0 to 10, 0 is no effect, 10 is complete control
structure (smiles),measurement,setting,value
CCC(C)N(C(=O)n1oc(=O)n(C(C)C)c1=O)c1ccc(F)cc1 (stereo not shown) [Compound 689],Giant foxtail plant response rating,giant foxtail; [1],10
same,"Plant response rating, Giant foxtail",giant foxtail; [2],10
same,Cocklebur plant response rating,cocklebur; [1],0
same,"Plant response rating, Cocklebur",cocklebur; [2],0
same,"Plant response rating, Cocklebur",cocklebur; [3],0
same,"Plant response rating, Cocklebur",cocklebur; [4],0
same,Bedstraw plant response rating,bedstraw; [1],0
same,"Plant response rating, Bedstraw",bedstraw; [2],0
same,"Plant response rating, Bedstraw",bedstraw; [3],7
same,"Plant response rating, Bedstraw",bedstraw; [4],5
same,B. signalgrass plant response rating,surinam grass; [1],2
same,"Plant response rating, B. signalgrass",surinam grass; [2],4
same,"Plant response rating, B. signalgrass",surinam grass; [3],9
same,"Plant response rating, B. signalgrass",surinam grass; [4],10
same,Sugarbeets plant response rating,sugar beet; [1],0
same,"Plant response rating, Sugarbeets",sugar beet; [2],2
same,Crabgrass plant response rating,crabgrass; [1],9
same,"Plant response rating, Crabgrass",crabgrass; [2],9
same,"Plant response rating, Crabgrass",crabgrass; [3],10
same,Morningglory plant response rating,morningglory; [1],0
same,"Plant response rating, Morningglory",morningglory; [2],3
same,Rape plant response rating,rape; [1],0
same,"Plant response rating, Rape",rape; [2],0
same,Velvetleaf plant response rating,velvetleaf; [1],2
same,"Plant response rating, Velvetleaf",velvetleaf; [2],3
same,Redroot pigweed plant response rating,pigweed; [1],3
same,"Plant response rating, Redroot pigweed",pigweed; [2],7
same,Wild oats plant response rating,wild oat; [1],7
same,"Plant response rating, Wild oats",wild oat; [2],9
same,Corn plant response rating,corn; [1],0
same,"Plant response rating, Corn",corn; [2],6
same,"Plant response rating, Corn",corn; [3],9
same,Blackgrass plant response rating,blackgrass; [1],9
same,"Plant response rating, Blackgrass",blackgrass; [2],9
same,"Plant response rating, Blackgrass",blackgrass; [3],10
same,"Plant response rating, Blackgrass",blackgrass; [4],10
same,Wheat plant response rating,wheat; [1],0
same,"Plant response rating, Wheat",wheat; [2],0
same,Soybean plant response rating,soybean; [1],0
same,"Plant response rating, Soybean",soybean; [2],0
same,Nutsedge plant response rating,purple nutsedge; [1],0
same,"Plant response rating, Nutsedge",purple nutsedge; [2],0
CC(C)N(C(=O)n1oc(=O)n(C(C)C(=O)N2CCOCC2)c1=O)c1ccc(Cl)cc1 (stereo not shown) [Compound 703],Giant foxtail plant response rating,giant foxtail; [1],5
same,"Plant response rating, Giant foxtail",giant foxtail; [2],7
same,Cocklebur plant response rating,cocklebur; [1],0
same,"Plant response rating, Cocklebur",cocklebur; [2],0
same,"Plant response rating, Cocklebur",cocklebur; [3],0
same,"Plant response rating, Cocklebur",cocklebur; [4],0
same,Bedstraw plant response rating,bedstraw; [1],0
same,"Plant response rating, Bedstraw",bedstraw; [2],0
same,"Plant response rating, Bedstraw",bedstraw; [3],0
same,"Plant response rating, Bedstraw",bedstraw; [4],0
same,B. signalgrass plant response rating,surinam grass; [1],2
same,"Plant response rating, B. signalgrass",surinam grass; [2],3
same,"Plant response rating, B. signalgrass",surinam grass; [3],3
same,"Plant response rating, B. signalgrass",surinam grass; [4],8
same,Sugarbeets plant response rating,sugar beet; [1],0
same,"Plant response rating, Sugarbeets",sugar beet; [2],0
same,Crabgrass plant response rating,crabgrass; [1],5
same,"Plant response rating, Crabgrass",crabgrass; [2],8
same,"Plant response rating, Crabgrass",crabgrass; [3],9
same,Morningglory plant response rating,morningglory; [1],0
same,"Plant response rating, Morningglory",morningglory; [2],0
same,Rape plant response rating,rape; [1],0
same,"Plant response rating, Rape",rape; [2],0
same,Velvetleaf plant response rating,velvetleaf; [1],0
same,"Plant response rating, Velvetleaf",velvetleaf; [2],0
same,Redroot pigweed plant response rating,pigweed; [1],0
same,"Plant response rating, Redroot pigweed",pigweed; [2],4
same,Wild oats plant response rating,wild oat; [1],0
same,"Plant response rating, Wild oats",wild oat; [2],0
same,Corn plant response rating,corn; [1],0
same,"Plant response rating, Corn",corn; [2],0
same,"Plant response rating, Corn",corn; [3],0
same,Blackgrass plant response rating,blackgrass; [1],0
same,"Plant response rating, Blackgrass",blackgrass; [2],3
same,"Plant response rating, Blackgrass",blackgrass; [3],6
same,"Plant response rating, Blackgrass",blackgrass; [4],8
same,Wheat plant response rating,wheat; [1],0
same,"Plant response rating, Wheat",wheat; [2],0
same,Soybean plant response rating,soybean; [1],0
same,"Plant response rating, Soybean",soybean; [2],0
same,Nutsedge plant response rating,purple nutsedge; [1],0
same,"Plant response rating, Nutsedge",purple nutsedge; [2],0
CC(C)N(C(=O)n1oc(=O)n(CC(F)F)c1=O)c1ccc(F)cc1F [Compound 711],"Plant response rating, Giant foxtail",giant foxtail; [5],6
same,Giant foxtail plant response rating,giant foxtail; [6],8
same,Giant foxtail plant response rating,giant foxtail; [1],10
same,"Plant response rating, Giant foxtail",giant foxtail; [2],10
same,Giant foxtail plant response rating,giant foxtail; [7],10
same,Giant foxtail plant response rating,giant foxtail; [8],9
same,Giant foxtail plant response rating,giant foxtail; [9],9
same,"Plant response rating, Cocklebur",cocklebur; [5],1
same,Cocklebur plant response rating,cocklebur; [6],1
same,Cocklebur plant response rating,cocklebur; [1],0
same,"Plant response rating, Cocklebur",cocklebur; [2],0
same,Cocklebur plant response rating,cocklebur; [7],0
same,"Plant response rating, Cocklebur",cocklebur; [4],0
same,Cocklebur plant response rating,cocklebur; [8],2
same,Cocklebur plant response rating,cocklebur; [9],7
same,Bedstraw plant response rating,bedstraw; [1],2
same,"Plant response rating, Bedstraw",bedstraw; [2],3
same,Bedstraw plant response rating,bedstraw; [7],6
same,"Plant response rating, Bedstraw",bedstraw; [4],7
same,Bedstraw plant response rating,bedstraw; [8],8
same,"Plant response rating, B. signalgrass",surinam grass; [5],4
same,B. signalgrass plant response rating,surinam grass; [6],6
same,B. signalgrass plant response rating,surinam grass; [1],2
same,"Plant response rating, B. signalgrass",surinam grass; [2],2
same,B. signalgrass plant response rating,surinam grass; [7],7
same,"Plant response rating, B. signalgrass",surinam grass; [4],8
same,B. signalgrass plant response rating,surinam grass; [8],6
same,B. signalgrass plant response rating,surinam grass; [9],8
same,"Plant response rating, Sugarbeets",sugar beet; [5],1
same,Sugarbeets plant response rating,sugar beet; [6],2
same,Sugarbeets plant response rating,sugar beet; [1],5
same,"Plant response rating, Sugarbeets",sugar beet; [2],6
same,Sugarbeets plant response rating,sugar beet; [7],8
same,Sugarbeets plant response rating,sugar beet; [8],2
same,Sugarbeets plant response rating,sugar beet; [9],3
same,"Plant response rating, Crabgrass",crabgrass; [5],4
same,Crabgrass plant response rating,crabgrass; [6],8
same,Crabgrass plant response rating,crabgrass; [1],8
same,"Plant response rating, Crabgrass",crabgrass; [2],9
same,Crabgrass plant response rating,crabgrass; [7],10
same,Crabgrass plant response rating,crabgrass; [8],9
same,Crabgrass plant response rating,crabgrass; [9],10
same,"Plant response rating, Morningglory",morningglory; [5],2
same,Morningglory plant response rating,morningglory; [6],2
same,Morningglory plant response rating,morningglory; [1],0
same,"Plant response rating, Morningglory",morningglory; [2],1
same,Morningglory plant response rating,morningglory; [7],3
same,Morningglory plant response rating,morningglory; [8],4
same,Morningglory plant response rating,morningglory; [9],4
same,"Plant response rating, Rape",rape; [5],0
same,Rape plant response rating,rape; [6],0
same,Rape plant response rating,rape; [1],1
same,"Plant response rating, Rape",rape; [2],6
same,Rape plant response rating,rape; [7],7
same,Rape plant response rating,rape; [8],2
same,Rape plant response rating,rape; [9],4
same,"Plant response rating, Velvetleaf",velvetleaf; [5],3
same,Velvetleaf plant response rating,velvetleaf; [6],5
same,Velvetleaf plant response rating,velvetleaf; [1],4
same,"Plant response rating, Velvetleaf",velvetleaf; [2],6
same,Velvetleaf plant response rating,velvetleaf; [7],6
same,Velvetleaf plant response rating,velvetleaf; [8],6
same,Velvetleaf plant response rating,velvetleaf; [9],6
same,"Plant response rating, Redroot pigweed",pigweed; [5],3
same,Redroot pigweed plant response rating,pigweed; [6],7
same,Redroot pigweed plant response rating,pigweed; [1],7
same,"Plant response rating, Redroot pigweed",pigweed; [2],7
same,Redroot pigweed plant response rating,pigweed; [7],9
same,Redroot pigweed plant response rating,pigweed; [8],9
same,Redroot pigweed plant response rating,pigweed; [9],10
same,"Plant response rating, Wild oats",wild oat; [5],0
same,Wild oats plant response rating,wild oat; [6],0
same,Wild oats plant response rating,wild oat; [1],7
same,"Plant response rating, Wild oats",wild oat; [2],7
same,Wild oats plant response rating,wild oat; [7],9
same,Wild oats plant response rating,wild oat; [8],2
same,Wild oats plant response rating,wild oat; [9],4
same,"Plant response rating, Corn",corn; [5],0
same,Corn plant response rating,corn; [6],0
same,Corn plant response rating,corn; [1],0
same,"Plant response rating, Corn",corn; [2],0
same,Corn plant response rating,corn; [7],0
same,Corn plant response rating,corn; [8],0
same,Corn plant response rating,corn; [9],4
same,"Plant response rating, Blackgrass",blackgrass; [5],3
same,Blackgrass plant response rating,blackgrass; [6],7
same,Blackgrass plant response rating,blackgrass; [1],6
same,"Plant response rating, Blackgrass",blackgrass; [2],6
same,Blackgrass plant response rating,blackgrass; [7],8
same,"Plant response rating, Blackgrass",blackgrass; [4],9
same,Blackgrass plant response rating,blackgrass; [8],7
same,Blackgrass plant response rating,blackgrass; [9],7
same,"Plant response rating, Wheat",wheat; [5],0
same,Wheat plant response rating,wheat; [6],0
same,Wheat plant response rating,wheat; [1],2
same,"Plant response rating, Wheat",wheat; [2],6
same,Wheat plant response rating,wheat; [7],8
same,Wheat plant response rating,wheat; [8],3
same,Wheat plant response rating,wheat; [9],5
same,"Plant response rating, Soybean",soybean; [5],1
same,Soybean plant response rating,soybean; [6],4
same,Soybean plant response rating,soybean; [1],0
same,"Plant response rating, Soybean",soybean; [2],0
same,Soybean plant response rating,soybean; [7],0
same,Soybean plant response rating,soybean; [8],5
same,Soybean plant response rating,soybean; [9],6
same,"Plant response rating, Nutsedge",purple nutsedge; [5],0
same,Nutsedge plant response rating,purple nutsedge; [6],0
same,Nutsedge plant response rating,purple nutsedge; [1],0
same,Nutsedge plant response rating,purple nutsedge; [7],0
same,Nutsedge plant response rating,purple nutsedge; [8],3
same,Nutsedge plant response rating,purple nutsedge; [9],5
